Several values for one entry are separate records, joined by “and”; a condition that tells them apart may be missing. Equal values may be shown once.
Legend:
Human Primary Adipocytes [1] = assay: Free fatty acid levels in cultured human primary adipocytes, forskolin stimulated (Example 5); assay type: cell-based; settings: test peptides 25 μM; forskolin 1 μM
Summary of the method: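 Differentiated human primary adipocytes (14–24 days) were exposed to peptides at 25 μM for 18–20 h and 1 h, then stimulated with 1 μM forskolin plus peptide for 3 h at 37 °C. Medium free fatty acids were measured colorimetrically (540 nm), background-corrected and expressed relative to forskolin-only cells.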

3T3-L1 Adipocytes [2] = assay: Free fatty acid levels in cultured mouse 3T3-L1 adipocytes, forskolin stimulated (Example 3); assay type: cell-based; settings: test peptides 25 μM; forskolin 1 μM
Experimental: Mouse 3T3-L1 cells were seeded at 1,000-20,000 cells per well on 96-well, 48-well, or 24-well plates in Pre-adipocyte Medium (Zen-Bio, Durham, N.C.) and grown to confluence at 37° C. in a humidified atmosphere of 5% CO2/95% air. Two days after confluence, cells were placed in Adipocyte Differentiation Medium (Zen-Bio, Durham, N.C.) and cultured for three additional days at 37° C. in a humidified atmosphere of 5% CO2/95% air. The culture media was then replaced with Adipocyte Maintenance Medium (Zen-Bio) and the cells were maintained for an additional 9-14 days at 37° C. in a humidified atmosphere of 5% CO2/95% air with partial medium replacement every other day. Following 12-17 days of differentiation, test peptides were added at a final concentration of 25 μM and incubated for 18-20 hours in Adipocyte Maintenance Medium at 37° C. in a humidified atmosphere of 5% CO2/95%. After 18-20 hours, the media was exchanged with fresh Adipocyte Maintenance Medium containing test peptides and incubated for 1 h at 37° C. in a humidified atmosphere of 5% CO2/95%. After 1 h media was exchanged with Assay Buffer (Zen-Bio) containing forskolin (1 μM) (added to all samples except untreated controls) and test peptides. Cells were incubated for a further 3 hours at 37° C. in a humidified atmosphere of 5% CO2/95%. Free fatty acid concentrations in the media were determined using a Free Fatty Acid Assay Kit (Zen-Bio) according to the manufacturer's instructions using a plate reader (540 nm). Absorbance values were corrected for untreated background and expressed relative to forskolin treated cells. Treatment with forskolin (1 μM) alone was used as the free fatty acid level stimulatory control. The relative standard deviation of the forskolin control was <10%. […] Free fatty acid levels for insulin (100 nM) treatment were <9% of the forskolin control value.

Human Primary Adipocytes [3] = assay: Free fatty acid levels in cultured human primary adipocytes, isoproterenol stimulated (Example 4); assay type: cell-based; settings: test peptides 25 μM; isoproterenol 1 nM
Experimental: Human primary adipocytes were seeded at 5,000-100,000 cells per well on 96-well, 48-well, or 24-well plates in Pre-adipocyte Medium (Zen-Bio, Durham, N.C.) and grown to confluence at 37° C. in a humidified atmosphere of 5% CO2/95% air. Two days after confluence, cells were placed in Adipocyte Differentiation Medium (Zen-Bio, Durham, N.C.) and cultured for three additional days at 37° C. in a humidified atmosphere of 5% CO2/95% air. The culture media was then replaced with Adipocyte Maintenance Medium (Zen-Bio) and the cells were maintained for an additional 11-21 days at 37° C. in a humidified atmosphere of 5% CO2/95% air with partial medium replacement every other day. Following 14-24 days of differentiation, test peptides were added at a final concentration of 25 μM and incubated for 18-20 hours in Adipocyte Maintenance Medium at 37° C. in a humidified atmosphere of 5% CO2/95%. After 18-20 hours, the media was exchanged with fresh Adipocyte Maintenance Medium containing test peptides and incubated for 1 h at 37° C. in a humidified atmosphere of 5% CO2/95%. After 1 h media was exchanged with Assay Buffer (Zen-Bio) containing isoproterenol (1 nM) (added to all samples except untreated controls) and test peptides. Cells were incubated for a further 3 hours at 37° C. in a humidified atmosphere of 5% CO2/95%. Free fatty acid concentrations in the media were determined using a Free Fatty Acid Assay Kit (Zen-Bio) according to the manufacturer's instructions using a plate reader (540 nm). Absorbance values were corrected for untreated background and expressed relative to isoproterenol treated cells. Treatment with isoproterenol (1 nM) alone was used as the free fatty acid level stimulatory control. The relative standard deviation of the isoproterenol control was <14%. […] Free fatty acid levels for insulin (100 nM) treatment were <5% of the isoproterenol control value.

3T3-L1 Adipocytes [4] = assay: Free fatty acid levels in cultured mouse 3T3-L1 adipocytes, isoproterenol stimulated (Example 2); assay type: cell-based; settings: test peptides 25 μM; isoproterenol 1 nM
Summary of the method: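 Release of free fatty acids, read at 540 nm, was stimulated with 1 nM isoproterenol for 3 h in mouse 3T3-L1 adipocytes (12–17 days of differentiation). Cells were pre-exposed to 25 μM peptide for 18–20 h plus 1 h, with peptide kept in during stimulation. Values are background-subtracted and normalised to isoproterenol alone.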

[5] = Stability in mouse plasma, peptides 100 uM (Example 14); assay type: in vitro ADME; settings: mouse plasma 37° C., peptide 100 uM; for remaining at 0.25 h, 100 uM / remaining at 0.5 h, 100 uM / remaining at 1 h, 100 uM / remaining at 2 h, 100 uM / remaining at 3 h, 100 uM: pooled mouse plasma; for remaining at 0.25 h, 100 uM: 15 min, read-out: % Remaining at Each Time Point: 15 min; for remaining at 0.5 h, 100 uM: 30 min, read-out: % Remaining at Each Time Point: 30 min; for remaining at 1 h, 100 uM: 60 min, read-out: % Remaining at Each Time Point: 60 min; for remaining at 2 h, 100 uM: 120 min, read-out: % Remaining at Each Time Point: 120 min; for remaining at 3 h, 100 uM: 180 min, read-out: % Remaining at Each Time Point: 180 min
Experimental: (§1) Peptides (100 uM) were incubated in pooled mouse plasma at 37° C. and samples were removed and immediately analyzed for the concentration of intact peptide by LC/MS/MS over the course of 3 hours. The percent of peptide remaining in plasma at each time point was calculated relative to the initial peak area (Table 12).

[6] = test system: Diet Induced Obese (DIO) mice; assay: Body weight, blood glucose and fat mass in Diet Induced Obese mice, 10 days (Example 6); assay type: in vivo, Male C57BL/6 mice; settings: male DIO mice; 10 days twice daily intraperitoneal 15 mg/kg; N = 8; mean
Experimental: Animals were randomized to treatment groups based on blood glucose levels and body weight. The peptides of the invention were administered to two groups of male DIG mice once or twice daily by subcutaneous or intraperitoneal injection at a dose of 15 mg/kg/dose for 10 days (N=8 animals per treatment group). An additional group of male DIG mice (n=8) received vehicle (water or saline) alone. Body weight, blood glucose levels and food intake were monitored. Body mass distribution (fat vs lean) was determined by quantitative whole body NMR prior to dosing and at the end of dosing.

[7] = Stability in mouse plasma, peptides 10 uM (Example 15); assay type: in vitro ADME; settings: mouse plasma 37° C., peptide 10 uM
Experimental: as §1, with “(10” for “(100”, “13).” for “12).”

| % Remaining at Each Time Point: 0 min [5] [%] | remaining at 0.25 h, 100 uM [5] [%] | remaining at 0.5 h, 100 uM [5] [%] | remaining at 1 h, 100 uM [5] [%] | remaining at 2 h, 100 uM [5] [%] | remaining at 3 h, 100 uM [5] [%] | % Remaining at Each Time Point: 0 min ([7]; 0 min) [%] | remaining at 0.25 h, 10 uM ([7]; pooled mouse plasma, 15 min, read-out: % Remaining at Each Time Point: 15 min) [%] | remaining at 0.5 h, 10 uM ([7]; pooled mouse plasma, 30 min, read-out: % Remaining at Each Time Point: 30 min) [%] | remaining at 1 h, 10 uM ([7]; pooled mouse plasma, 60 min, read-out: % Remaining at Each Time Point: 60 min) [%] | remaining at 2 h, 10 uM ([7]; pooled mouse plasma, 120 min, read-out: % Remaining at Each Time Point: 120 min) [%] | remaining at 3 h, 10 uM ([7]; pooled mouse plasma, 180 min, read-out: % Remaining at Each Time Point: 180 min) [%] | Substance | Free Fatty Acid Levels in Human Primary Adipocytes Expressed as a Percent of Forskolin Control: Percent of Control Value (Human Primary Adipocytes [1]) [%] | Free Fatty Acid Levels in 3T3-L1 Adipocytes Expressed as a Percent of Forskolin Control: Percent of Control Value (3T3-L1 Adipocytes [2]) [%] | Free Fatty Acid Levels in Human Primary Adipocytes Expressed as a Percent of Isoproterenol Control: Percent of Control Value (Human Primary Adipocytes [3]) [%] | Free Fatty Acid Levels in 3T3-L1 Adipocytes Expressed as a Percent of Isoproterenol Control: Percent of Control Value (3T3-L1 Adipocytes [4]) | Difference from Vehicle Control: Decrease from Baseline in Blood Glucose [6] [mg/dL] | Difference from Vehicle Control: Decrease from Baseline in Body Weight (%) [6] [%] | Difference from Vehicle Control: Decrease from Baseline in Fat Mass [6] [g] |
| --- | --- | --- | --- | --- | --- | --- | --- | --- | --- | --- | --- | --- | --- | --- | --- | --- | --- | --- | --- |
| 100 | 56.7 | 49 | 38.9 | 23.8 | 18.3 | – | – | – | – | – | – | H-MRWQEMGYIFYPR-OH [compound 47] | 89.9 | 45.3 | 60.5 | 24.5% | – | – | – |
| – | – | – | – | – | – | – | – | – | – | – | – | H-QEMGYIFYPRKLR-OH [compound 40] | 107 | 96.1 | 122 | 83.1% | – | – | – |
| 100 | 39.5 | 38.8 | 54.9 | 24 | 16.3 | – | – | – | – | – | – | H-WQEMGYIFYPRKLR-OH [compound 39] | 80.8 | 114 | 22.2 | 84.3% | – | – | – |
| – | – | – | – | – | – | – | – | – | – | – | – | Ac-RWQEMGYIFYPRKLR-NH2 [compound 52] | 107 | 88.0 | 126 | 85.6% and 99.5% | – | – | – |
| 100 | 13.2 | 11.2 | 10.1 | 11.7 | 9.81 | – | – | – | – | – | – | H-MRAQEMGYIFYPRKLR-OH [compound 8] | 107 | – | 22.2 | – | -20.0 | −0.24 | -0.20 |
| 100 | 47.5 | 38.9 | 38 | 36.3 | 38.3 | – | – | – | – | – | – | H-MRWQEMQYIFYPR-OH [compound 209] | 90.1 | 33.3 | 66.8 | 30.1% | – | – | – |
| 100 | 28.1 | 26.4 | 31.4 | 12.4 | 12.6 | – | – | – | – | – | – | H-MRWQEMGYIFYPRK-OH [compound 46] | 73.9 | 66.8 | 71.6 | 43.1% | – | – | – |
| – | – | – | – | – | – | 100 | 66.5 | 33 | 7.31 | 0 | 0 | H-MRWQEMGYIFYPRKL-OH [compound 45] | 125 | – | 22.2 | 37.9% | 6.00 | −2.01 | -0.69 |
